Tests used:
[1] = molecular target: T1, IRAK4 (Homo sapiens (Human), UniProt Q9NWZ3); test: IRAK4 Degradation HiBiT Assay; conditions: multiple runs, HiBiT-tagged Jurkat cells, 4 hrs; for Dmax: Jurkat, read-out: Cellular IRAK4 HiBiT: Dmax, Table 5; for DC50: read-out: Cellular IRAK4 HiBiT: DC50, Table 5
Target sequence in this assay (Q9NWZ3 whole entry): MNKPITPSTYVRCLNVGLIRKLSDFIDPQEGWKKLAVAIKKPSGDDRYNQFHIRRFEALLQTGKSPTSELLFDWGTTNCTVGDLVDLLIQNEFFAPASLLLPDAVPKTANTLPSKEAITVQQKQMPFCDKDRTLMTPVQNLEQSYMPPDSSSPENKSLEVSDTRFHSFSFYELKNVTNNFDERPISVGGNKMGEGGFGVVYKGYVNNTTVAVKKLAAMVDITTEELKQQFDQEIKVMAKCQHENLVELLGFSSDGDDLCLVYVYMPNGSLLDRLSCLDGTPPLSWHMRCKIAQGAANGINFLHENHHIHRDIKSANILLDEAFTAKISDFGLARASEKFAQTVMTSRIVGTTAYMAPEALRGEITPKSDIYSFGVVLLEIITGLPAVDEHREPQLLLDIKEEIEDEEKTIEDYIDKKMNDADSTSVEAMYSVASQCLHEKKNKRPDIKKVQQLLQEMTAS

[2] = molecular target: T1, IRAK4; test: IRAK4 Biochemical HTRF Kinase Assay; conditions: Table 5; multiple runs; read-out: IRAK4 HTRF biochemical: IC50
Summary of the method: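 IC50 values derive from non-linear regression of sixteen concentrations in duplicate. Kinase reaction ran 90 min at ambient temperature after adding 5 μM STK-S1 substrate, 10 mM ATP and 10 mM MgCl2 (reaction-solution levels, pre-dilution to 10 μl); phospho-peptide detected by HTRF after 60 min.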
Target sequence in this assay (Q9NWZ3 whole entry, species assumed): as the sequence (Q9NWZ3 whole entry) above

SMILES | Dmax [1] | DC50 [1] | IC50 [2]
CNc1cc(-c2ccc3cc(C#N)cnn23)ncc1-c1nnc(N2CCN(C(=O)COc3cc(-c4scnc4C)ccc3CNC(=O)[C@@H]3C[C@@H](O)CN3C(=O)[C@@H](NC(=O)C3(F)CC3)C(C)(C)C)CC2)s1 [Example 96, (2S,4R)—N-(2-(2-(4-(5-(6-(3-cyanopyrrolo[1,2-b]pyridazin-7-yl)-4-(methylamino)pyridin-3-yl)-1,3,4-thiadiazol-2-yl)piperazin-1-yl)-2-oxoethoxy)-4-(4-methylthiazol-5-yl)benzyl)-1-((S)-2-(1-fluorocyclopropane-1-carboxamido)-3,3-dimethylbutanoyl)-4-hydroxypyrrolidine-2-carboxamide] | 90% | 905 nM | 1.3 nM
CNc1cc(-c2ccc3cc(C#N)cnn23)ncc1-c1nnc(N2CCC(NC(=O)COc3cc(-c4scnc4C)ccc3CNC(=O)[C@@H]3C[C@@H](O)CN3C(=O)[C@@H](NC(=O)C3(F)CC3)C(C)(C)C)CC2)s1 [Example 97, (2S,4R)—N-(2-(2-((1-(5-(6-(3-cyanopyrrolo[1,2-b]pyridazin-7-yl)-4-(methylamino)pyridin-3-yl)-1,3,4-thiadiazol-2-yl)piperidin-4-yl)amino)-2-oxoethoxy)-4-(4-methylthiazol-5-yl)benzyl)-1-((S)-2-(1-fluorocyclopropane-1-carboxamido)-3,3-dimethylbutanoyl)-4-hydroxypyrrolidine-2-carboxamide] | 59% | 265 nM | 4.8 nM
CNc1cc(-c2ccc3cc(C#N)cnn23)ncc1-c1nnc(N2CCN(C3CCN(C(=O)c4ccc5c(c4)C(=O)N(C4CCC(=O)NC4=O)C5=O)CC3)CC2)s1 (stereo not drawn) [Example 98, 7-(5-(5-(4-(1-(2-(2,6-dioxopiperidin-3-yl)-1,3-dioxoisoindoline-5-carbonyl)piperidin-4-yl)piperazin-1-yl)-1,3,4-thiadiazol-2-yl)-4-(methylamino)pyridin-2-yl)pyrrolo[1,2-b]pyridazine-3-carbonitrile] | 109% | 6.58 nM | 0.3 nM
CNc1cc(-c2ccc3cc(C#N)cnn23)ncc1-c1nnc(N2CCN(C3CCN(C(=O)c4ccc5c(c4)C(=O)N(C4CCC(=O)NC4=O)C5)CC3)CC2)s1 (stereo not drawn) [Example 99, 7-(5-(5-(4-(1-(2-(2,6-dioxopiperidin-3-yl)-3-oxoisoindoline-5-carbonyl)piperidin-4-yl)piperazin-1-yl)-1,3,4-thiadiazol-2-yl)-4-(methylamino)pyridin-2-yl)pyrrolo[1,2-b]pyridazine-3-carbonitrile] | 116% | 3.59 nM | 0.3 nM
CNc1cc(-c2ccc3cc(C#N)cnn23)ncc1-c1nnc(N2CCN(C3CCN(C(=O)Cc4ccc5c(c4)CN(C4CCC(=O)NC4=O)C5=O)CC3)CC2)s1 (stereo not drawn) [Example 100, 7-(5-(5-(4-(1-(2-(2-(2,6-dioxopiperidin-3-yl)-1-oxoisoindolin-5-yl)acetyl)piperidin-4-yl)piperazin-1-yl)-1,3,4-thiadiazol-2-yl)-4-(methylamino)pyridin-2-yl)pyrrolo[1,2-b]pyridazine-3-carbonitrile] | 111% | 4.41 nM | 0.4 nM
CNc1cc(-c2ccc3cc(C#N)cnn23)ncc1-c1nnc([C@H]2CC[C@H](NC(=O)C34CC(C(=O)N[C@H](C(=O)N5C[C@H](O)C[C@H]5C(=O)N[C@@H](C)c5ccc(-c6scnc6C)cc5)C(C)(C)C)(C3)C4)CC2)s1 [Example 101, N1-((1r,4S)-4-(5-(6-(3-cyanopyrrolo[1,2-b]pyridazin-7-yl)-4-(methylamino)pyridin-3-yl)-1,3,4-thiadiazol-2-yl)cyclohexyl)-N3-((S)-1-((2S,4R)-4-hydroxy-2-(((S)-1-(4-(4-methylthiazol-5-yl)phenyl)ethyl)carbamoyl)pyrrolidin-1-yl)-3,3-dimethyl-1-oxobutan-2-yl)bicyclo[1.1.1]pentane-1,3-dicarboxamide] | 117% | 42.2 nM | 2.4 nM
CNc1cc(-c2ccc3cc(C#N)cnn23)ncc1-c1nnc(C23CCC(NC(=O)CCOCCNc4ccc5c(c4)C(=O)N(C4CCC(=O)NC4=O)C5=O)(CC2)CC3)s1 (stereo not drawn) [Example 102, N-(4-(5-(6-(3-cyanopyrrolo[1,2-b]pyridazin-7-yl)-4-(methylamino)pyridin-3-yl)-1,3,4-thiadiazol-2-yl)bicyclo[2.2.2]octan-1-yl)-3-(2-((2-(2,6-dioxopiperidin-3-yl)-1,3-dioxoisoindolin-5-yl)amino)ethoxy)propanamide] | 91% | 25.3 nM | 0.8 nM
CNc1cc(-c2ccc3cc(C#N)cnn23)ncc1-c1nnc(C23CCC(NC(=O)C4CN(C5CCN(c6ccc7c(c6)C(=O)N(C6CCC(=O)NC6=O)C7=O)CC5)C4)(CC2)CC3)s1 (stereo not drawn) [Example 103, N-(4-(5-(6-(3-cyanopyrrolo[1,2-b]pyridazin-7-yl)-4-(methylamino)pyridin-3-yl)-1,3,4-thiadiazol-2-yl)bicyclo[2.2.2]octan-1-yl)-1-(1-(2-(2,6-dioxopiperidin-3-yl)-1,3-dioxoisoindolin-5-yl)piperidin-4-yl)azetidine-3-carboxamide] | 99% | 73.3 nM | 1 nM
CNc1cc(-c2ccc3cc(C#N)cnn23)ncc1-c1nnc(C23CCC(NC(=O)CN4CCC5(CC4)CN(c4ccc6c(c4)C(=O)N(C4CCC(=O)NC4=O)C6=O)C5)(CC2)CC3)s1 (stereo not drawn) [Example 104, N-(4-(5-(6-(3-cyanopyrrolo[1,2-b]pyridazin-7-yl)-4-(methylamino)pyridin-3-yl)-1,3,4-thiadiazol-2-yl)bicyclo[2.2.2]octan-1-yl)-2-(2-(2-(2,6-dioxopiperidin-3-yl)-1,3-dioxoisoindolin-5-yl)-2,7-diazaspiro[3.5]nonan-7-yl)acetamide] | 77% | 49.9 nM | 1.5 nM
CNc1cc(-c2ccc3cc(C#N)cnn23)ncc1-c1nnc(C23CCC(NC(=O)CN4CCN(c5ccc6c(c5)C(=O)N(C5CCC(=O)NC5=O)C6=O)CC4)(CC2)CC3)s1 (stereo not drawn) [Example 105, N-(4-(5-(6-(3-cyanopyrrolo[1,2-b]pyridazin-7-yl)-4-(methylamino)pyridin-3-yl)-1,3,4-thiadiazol-2-yl)bicyclo[2.2.2]octan-1-yl)-2-(4-(2-(2,6-dioxopiperidin-3-yl)-1,3-dioxoisoindolin-5-yl)piperazin-1-yl)acetamide] | 106% | 39.8 nM | 1.2 nM

More lines, now with the values ahead:

Dmax [1] | DC50 [1] | IC50 [2] | SMILES
45% | 43.8 nM | 2 nM | CNc1cc(-c2ccc3cc(C#N)cnn23)ncc1-c1nnc(C23CCC(NC(=O)CCCCCNc4cccc5c4C(=O)N(C4CCC(=O)NC4=O)C5=O)(CC2)CC3)s1 (stereo not drawn) [Example 106, N-(4-(5-(6-(3-cyanopyrrolo[1,2-b]pyridazin-7-yl)-4-(methylamino)pyridin-3-yl)-1,3,4-thiadiazol-2-yl)bicyclo[2.2.2]octan-1-yl)-6-((2-(2,6-dioxopiperidin-3-yl)-1,3-dioxoisoindolin-4-yl)amino)hexanamide]
44% | 99.7 nM | 2.6 nM | CNc1cc(-c2ccc3cc(C#N)cnn23)ncc1-c1nnc(C23CCC(NC(=O)CCCCCCCNc4ccc5c(c4)C(=O)N(C4CCC(=O)NC4=O)C5=O)(CC2)CC3)s1 (stereo not drawn) [Example 107, N-(4-(5-(6-(3-cyanopyrrolo[1,2-b]pyridazin-7-yl)-4-(methylamino)pyridin-3-yl)-1,3,4-thiadiazol-2-yl)bicyclo[2.2.2]octan-1-yl)-8-((2-(2,6-dioxopiperidin-3-yl)-1,3-dioxoisoindolin-5-yl)amino)octanamide]
70% | 45.7 nM | 1.4 nM | CNc1cc(-c2ccc3cc(C#N)cnn23)ncc1-c1nnc(C23CCC(NC(=O)CCCCCNc4ccc5c(c4)C(=O)N(C4CCC(=O)NC4=O)C5=O)(CC2)CC3)s1 (stereo not drawn) [Example 108, N-(4-(5-(6-(3-cyanopyrrolo[1,2-b]pyridazin-7-yl)-4-(methylamino)pyridin-3-yl)-1,3,4-thiadiazol-2-yl)bicyclo[2.2.2]octan-1-yl)-6-((2-(2,6-dioxopiperidin-3-yl)-1,3-dioxoisoindolin-5-yl)amino)hexanamide]
64% | 21.6 nM | 1.4 nM | CNc1cc(-c2ccc3cc(C#N)cnn23)ncc1-c1nnc(C23CCC(NC(=O)[C@H]4C[C@@H](OCCNc5cccc6c5C(=O)N(C5CCC(=O)NC5=O)C6=O)C4)(CC2)CC3)s1 (stereo partly drawn) [Example 109, (1s,3s)-N-(4-(5-(6-(3-cyanopyrrolo[1,2-b]pyridazin-7-yl)-4-(methylamino)pyridin-3-yl)-1,3,4-thiadiazol-2-yl)bicyclo[2.2.2]octan-1-yl)-3-(2-((2-(2,6-dioxopiperidin-3-yl)-1,3-dioxoisoindolin-4-yl)amino)ethoxy)cyclobutane-1-carboxamide]
93% | 34.2 nM | 0.7 nM | CNc1cc(-c2ccc3cc(C#N)cnn23)ncc1-c1nnc(C23CCC(NC(=O)CCOCCOCCOCCNc4cccc5c4C(=O)N(C4CCC(=O)NC4=O)C5=O)(CC2)CC3)s1 (stereo not drawn) [Example 110, N-(4-(5-(6-(3-cyanopyrrolo[1,2-b]pyridazin-7-yl)-4-(methylamino)pyridin-3-yl)-1,3,4-thiadiazol-2-yl)bicyclo[2.2.2]octan-1-yl)-3-(2-(2-(2-((2-(2,6-dioxopiperidin-3-yl)-1,3-dioxoisoindolin-4-yl)amino)ethoxy)ethoxy)ethoxy)propanamide]
59% | 15.8 nM | 1.1 nM | CNc1cc(-c2ccc3cc(C#N)cnn23)ncc1-c1nnc(C23CCC(NC(=O)CCOCCNc4cccc5c4C(=O)N(C4CCC(=O)NC4=O)C5=O)(CC2)CC3)s1 (stereo not drawn) [Example 111, N-(4-(5-(6-(3-cyanopyrrolo[1,2-b]pyridazin-7-yl)-4-(methylamino)pyridin-3-yl)-1,3,4-thiadiazol-2-yl)bicyclo[2.2.2]octan-1-yl)-3-(2-((2-(2,6-dioxopiperidin-3-yl)-1,3-dioxoisoindolin-4-yl)amino)ethoxy)propenamide]

Reference: US12528814B2, “Bifunctional degraders of interleukin-1 receptor-associated kinases and therapeutic use thereof” (NURIX THERAPEUTICS, INC., priority 2020, dated 2026)
